US10532106B2 (priority 2014, dated 2020)
Like-named read-outs stand apart in the source and are kept apart here. Numbered stars: 1 amine (or outer) side, 2 acyl side, 3 side chain; on linkers, the order of the positions; unused ones are H or OH. Bridge positions count the residues as written; N and C are the ends. Square brackets hold non-standard residues; d marks the D form. Peptide text beside a SMILES is read from it. * marks the point of attachment. DOTA = O=C(O)CN1CCN(CC(=O)O)CCN(CC(=O)*)CCN(CC(=O)O)CC1; Phe(F5) = N[C@@H](Cc1c(F)c(F)c(F)c(F)c1F)C(=O)O; Phe(4-Br) = N[C@@H](Cc1ccc(Br)cc1)C(=O)O; 1Nal = N[C@@H](Cc1cccc2ccccc12)C(=O)O; TBMB = c1c(C[*:1])cc(C[*:3])cc1C[*:2]; Tle = CC(C)(C)[C@H](N)C(=O)O; Sar = CNCC(=O)O

Target: T1, MT1-MMP hemopexin domain (Homo sapiens, UniProt P50281)
T1 construct: residues Cys319-Gly511 from the human gene; His6 (N); made in house; host or cells: HEK293 (transient), pEXPR-IBA42 vector
Test: Competition assay using fluorescence polarisation
Assay type: binding
Settings: for Kd: read-out: Kd
Excerpt: Here, a pre-formed complex of PEX with the fluorescent PEX-binding tracer is titrated with free, non-fluoresceinated bicyclic peptide. Since all 17-69-based peptides are expected to bind at the same site, the titrant will displace the fluorescent tracer from PEX. Dissociation of the complex can be measured quantitatively, and the Kd of the competitor (titrant) to the target protein determined. The advantage of the competition method is that the affinities of non-fluoresceinated bicyclic peptides can be determined accurately and rapidly.
Subsequently, the non-fluorescent competitor bicyclic peptide (usually just the bicycle core sequence) is titrated, such that it displaces the fluorescent tracer from the target protein. The displacement of the tracer is measured and associated with a drop in fluorescence polarisation. The drop in fluorescence polarisation is proportional to the fraction of target protein bound with the non-fluorescent titrant, and thus is a measure of the affinity of titrant to target protein.
The raw data is fit to the analytical solution of the cubic equation that describes the equilibria between fluorescent tracer, titrant, and binding protein. The fit requires the value of the affinity of fluorescent tracer to the target protein, which can be determined separately by direct binding FP experiments (see previous section).

[1] = Table 12, molecules selected for plasma stability assessment

| SMILES | potency / activity toward MT1-MMP, in words | Kd (Table 15, DOTA-linked peptides) | further results |
| --- | --- | --- | --- |
| CC[C@H](C)[C@@H]1NC(=O)[C@H](CC(=O)O)NC(=O)[C@H](Cc2ccc(O)cc2)NC(=O)[C@H](Cc2ccccc2)NC(=O)[C@H](CC(=O)O)NC(=O)[C@H](CCC(=O)O)NC(=O)[C@@H]2CSCc3cc(cc(c3)CSC[C@H](NC(C)=O)C(=O)N[C@@H](Cc3ccc(O)cc3)C(=O)N[C@@H](CC(N)=O)C(=O)N[C@@H](CCC(=O)O)C(=O)N[C@@H](CCc3ccccc3)C(=O)NCC(=O)N2)CSC[C@@H](C(N)=O)NC1=O [17-69-07-N140, Ac-(17-69-07) HPhe4] | – | – | Kd (Table 8, substitutions at position 4): 43.3 nM |
| CC[C@H](C)[C@@H]1NC(=O)[C@H](CC(=O)O)NC(=O)[C@H](Cc2ccc(O)cc2)NC(=O)[C@H](Cc2ccccc2)NC(=O)[C@H](CC(=O)O)NC(=O)[C@H](CCC(=O)O)NC(=O)[C@@H]2CSCc3cc(cc(c3)CSC[C@H](NC(=O)[C@H](C)NC(=O)CN3CCN(CC(=O)O)CCN(CC(=O)O)CCN(CC(=O)O)CC3)C(=O)N[C@@H](Cc3ccc(O)cc3)C(=O)N[C@@H](CC(N)=O)C(=O)N[C@@H](CCC(=O)O)C(=O)N[C@@H](Cc3ccccc3)C(=O)NCC(=O)N2)CSC[C@@H](C(N)=O)NC1=O [17-69-07-N144, DOTA-A-(17-69-07)] | retains full potency to MT1-MMP | 0.5 nM | – |
| CC[C@H](C)[C@@H]1NC(=O)[C@H](CC(=O)O)NC(=O)[C@H](Cc2ccc(O)cc2)NC(=O)[C@H](Cc2ccccc2)NC(=O)[C@H](CC(=O)O)NC(=O)[C@H](CCC(=O)O)NC(=O)[C@@H]2CSCc3cc(cc(c3)CSC[C@H](NC(=O)[C@H](C)NC(=O)CN3CCN(CC(=O)O)CCN(CC(=O)O)CCN(CC(=O)O)CC3)C(=O)N[C@@H](Cc3ccc(O)cc3)C(=O)N[C@@H](CC(N)=O)C(=O)N[C@@H](CCC(=O)O)C(=O)N[C@@H](Cc3ccccc3)C(=O)NCC(=O)N2)CSC[C@@H](C(N)=O)NC1=O [17-69-07-N147, DOTA[Lu]-A-(17-69-07)] | – | 0.95 ± 0.5 nM | – |
| CC[C@H](C)[C@@H]1NC(=O)[C@H](CC(=O)O)NC(=O)[C@H](Cc2c(F)c(F)c(F)c(F)c2F)NC(=O)[C@H](Cc2ccccc2)NC(=O)[C@H](CC(=O)O)NC(=O)[C@H](CCC(=O)O)NC(=O)[C@@H]2CSCc3cc(cc(c3)CSC[C@H](NC(C)=O)C(=O)N[C@@H](Cc3ccc(O)cc3)C(=O)N[C@@H](CC(N)=O)C(=O)N[C@@H](CCC(=O)O)C(=O)N[C@@H](Cc3ccccc3)C(=O)NCC(=O)N2)CSC[C@@H](C(N)=O)NC1=O [17-69-07-N182, Ac-(17-69-07) 5FPhe9] (Ac-CYNEFGCEDF[Phe(F5)]DIC-NH2; linker 1-7-14 via TBMB) | – | – | Kd (Table 9, tolerated substitutions at positions 9 and 11): 13.1 nM |
| CC[C@H](C)[C@@H]1NC(=O)[C@H](CC(=O)O)NC(=O)[C@H](Cc2ccc(O)cc2)NC(=O)[C@H](Cc2ccccc2)NC(=O)[C@H](CC(=O)O)NC(=O)[C@H](CCC(=O)O)NC(=O)[C@@H]2CSCc3cc(cc(c3)CSC[C@H](NC(=O)[C@H](C)NC(=O)CN(C)C(=O)CN(C)C(=O)CN(C)C(=O)CN(C)C(=O)CN(C)C(=O)CN(C)C(=O)CN(C)C(=O)CN(C)C(=O)CN(C)C(=O)CN(C)C(=O)CNC(C)=O)C(=O)N[C@@H](Cc3ccc(O)cc3)C(=O)N[C@@H](CC(N)=O)C(=O)N[C@@H](CCC(=O)O)C(=O)N[C@@H](Cc3ccccc3)C(=O)NCC(=O)N2)CSC[C@@H](C(N)=O)NC1=O [17-69-07-N225, Ac-G-Sar10-A-(17-69-07)] (Ac-G[Sar][Sar][Sar][Sar][Sar][Sar][Sar][Sar][Sar][Sar]ACYNEFGCEDFYDIC-NH2; linker 13-19-26 via TBMB) | – | – | Kd (Table 11, G-Sar10-A addition): 0.95 ± 0.1 nM |
| C[C@H](NC(=O)CN(C)C(=O)CN(C)C(=O)CN(C)C(=O)CN(C)C(=O)CN(C)C(=O)CN(C)C(=O)CN(C)C(=O)CN(C)C(=O)CN(C)C(=O)CN(C)C(=O)CN)C(=O)N[C@H]1CSCc2cc3cc(c2)CSC[C@H](NC(=O)[C@@H](C)NC(=O)[C@H](Cc2cccc4ccccc24)NC(=O)[C@H](CCC(=O)O)NC(=O)[C@H](CC(N)=O)NC(=O)[C@@H](C)NC1=O)C(=O)N[C@@H](CCC(=O)O)C(=O)N[C@@H](CC(=O)O)C(=O)N[C@@H](Cc1ccccc1)C(=O)N[C@@H](Cc1ccc(O)cc1)C(=O)N[C@@H](CC(=O)O)C(=O)N[C@@H](C(C)(C)C)C(=O)N[C@H](C(N)=O)CSC3 [17-69-07-N231, G-Sar10-A-(17-69-07) D-Ala1 1Nal4 D-Ala5 tBuGly11] (H-G[Sar][Sar][Sar][Sar][Sar][Sar][Sar][Sar][Sar][Sar]AC[dA]NE[1Nal][dA]CEDFYD[Tle]C-NH2; linker 13-19-26 via TBMB) | – | – | Kd [1]: 1.07 ± 0.28 nM |
| CC(=O)NCC(=O)N(C)CC(=O)N(C)CC(=O)N(C)CC(=O)N(C)CC(=O)N(C)CC(=O)N(C)CC(=O)N(C)CC(=O)N(C)CC(=O)N(C)CC(=O)N(C)CC(=O)N[C@@H](C)C(=O)N[C@H]1CSCc2cc3cc(c2)CSC[C@H](NC(=O)[C@@H](C)NC(=O)[C@H](Cc2cccc4ccccc24)NC(=O)[C@H](CCC(=O)O)NC(=O)[C@H](CC(N)=O)NC(=O)[C@@H](C)NC1=O)C(=O)N[C@@H](CCC(=O)O)C(=O)N[C@@H](CC(=O)O)C(=O)N[C@@H](Cc1ccccc1)C(=O)N[C@@H](Cc1ccc(O)cc1)C(=O)N[C@@H](CC(=O)O)C(=O)N[C@@H](C(C)(C)C)C(=O)N[C@H](C(N)=O)CSC3 [17-69-07-N239, Ac-G-Sar10-A-(17-69-07) D-Ala1 1Nal4 D-Ala5 tBuGly11] (Ac-G[Sar][Sar][Sar][Sar][Sar][Sar][Sar][Sar][Sar][Sar]AC[dA]NE[1Nal][dA]CEDFYD[Tle]C-NH2; linker 13-19-26 via TBMB) | potency which is superior to wildtype | – | Kd (Table 11, G-Sar10-A addition): 0.94 ± 0.08 nM |
| C[C@H](NC(=O)CN(C)C(=O)CN(C)C(=O)CN(C)C(=O)CN(C)C(=O)CN(C)C(=O)CN(C)C(=O)CN(C)C(=O)CN(C)C(=O)CN(C)C(=O)CN(C)C(=O)CN)C(=O)N[C@H]1CSCc2cc3cc(c2)CSC[C@H](NC(=O)[C@@H](C)NC(=O)[C@H](Cc2cccc4ccccc24)NC(=O)[C@H](CCC(=O)O)NC(=O)[C@H](CC(N)=O)NC(=O)[C@@H](C)NC1=O)C(=O)N[C@@H](CCC(=O)O)C(=O)N[C@@H](CC(=O)O)C(=O)N[C@@H](Cc1ccccc1)C(=O)N[C@@H](Cc1ccc(Br)cc1)C(=O)N[C@@H](CC(=O)O)C(=O)N[C@@H](C(C)(C)C)C(=O)N[C@H](C(N)=O)CSC3 [17-69-07-N244, G-Sar10-A-(17-69-07) D-Ala1 1Nal4 D-Ala5 4BrPhe9 tBuGly11] (H-G[Sar][Sar][Sar][Sar][Sar][Sar][Sar][Sar][Sar][Sar]AC[dA]NE[1Nal][dA]CEDF[Phe(4-Br)]D[Tle]C-NH2; linker 13-19-26 via TBMB) | potency which is superior to wildtype | – | Kd [1]: 0.45 ± 0.19 nM |
| CC[C@@H](C)[C@H]1NC(=O)[C@@H](CC(=O)O)NC(=O)[C@@H](Cc2ccc(O)cc2)NC(=O)[C@@H](Cc2ccccc2)NC(=O)[C@@H](CC(=O)O)NC(=O)[C@@H](CCC(=O)O)NC(=O)[C@H]2CSCc3cc(cc(c3)CSC[C@@H](NC(=O)[C@@H](C)NC(=O)CN3CCN(CC(=O)O)CCN(CC(=O)O)CCN(CC(=O)O)CC3)C(=O)N[C@H](Cc3ccc(O)cc3)C(=O)N[C@H](CC(N)=O)C(=O)N[C@H](CCC(=O)O)C(=O)N[C@H](Cc3ccccc3)C(=O)NCC(=O)N2)CSC[C@H](C(N)=O)NC1=O [17-69-07-N246, DOTA-A-(17-69-07) All D Amino Acids] | lacks any activity toward MT1-MMP | > 5000 nM | – |
| C[C@H](NC(=O)CN1CCN(CC(=O)O)CCN(CC(=O)O)CCN(CC(=O)O)CC1)C(=O)N[C@H]1CSCc2cc3cc(c2)CSC[C@H](NC(=O)[C@@H](C)NC(=O)[C@H](Cc2cccc4ccccc24)NC(=O)[C@H](CCC(=O)O)NC(=O)[C@H](CC(N)=O)NC(=O)[C@@H](C)NC1=O)C(=O)N[C@@H](CCC(=O)O)C(=O)N[C@@H](CC(=O)O)C(=O)N[C@@H](Cc1ccccc1)C(=O)N[C@@H](Cc1ccc(Br)cc1)C(=O)N[C@@H](CC(=O)O)C(=O)N[C@@H](C(C)(C)C)C(=O)N[C@H](C(N)=O)CSC3 [17-69-07-N248, DOTA-A-(17-69-07) D-Ala1 1Nal4 D-Ala5 4BrPhe9 tBuGly11] ({DOTA}-AC[dA]NE[1Nal][dA]CEDF[Phe(4-Br)]D[Tle]C-NH2; linker 2-8-15 via TBMB) | retained potency | 0.5 nM | – |
| CC(=O)N[C@H]1CSCc2cc3cc(c2)CSC[C@H](NC(=O)[C@@H](C)NC(=O)[C@H](Cc2cccc4ccccc24)NC(=O)[C@H](CCC(=O)O)NC(=O)[C@H](CC(N)=O)NC(=O)[C@@H](C)NC1=O)C(=O)N[C@@H](CCC(=O)O)C(=O)N[C@@H](CC(=O)O)C(=O)N[C@@H](Cc1ccccc1)C(=O)N[C@@H](Cc1ccc(Br)cc1)C(=O)N[C@@H](CC(=O)O)C(=O)N[C@@H](C(C)(C)C)C(=O)N[C@H](C(N)=O)CSC3 [17-69-07-N252, Ac-(17-69-07) D-Ala1 1Nal4 D-Ala5 4BrPhe9 tBuGly11] (Ac-C[dA]NE[1Nal][dA]CEDF[Phe(4-Br)]D[Tle]C-NH2; linker 1-7-14 via TBMB) | potency which is superior to wildtype | – | Kd (Table 10, multi-substitution): 0.8 ± 0.39 nM |
